Test in all cases: biochemical
Common to all, as to parameters: Ubiquigent DUB profiler selectivity panel, remaining enzyme activity as % of control
Common to all, as to settings: read-out: % of control remaining

Experiment [1] addresses T1, Ataxin3 (Homo sapiens, UniProt P54252).
T1 construct: gene ATXN3
Here is the method: (§1) Previous work has reported IC50 values for a series of benzosulphonamide inhibitors, of which all those <1 μM were screened for selectivity, in comparison to three other USP family members ([20], [21]). We have selected one of these compounds (CMPD-39, Fig 1A) for a more rigorous test of selectivity provided by the Ubiquigent DUB profiler screening platform comprising >40 DUBs. […] To test engagement of the inhibitor with USP30 applied to intact cells, we assayed competition with Ub-PA (Ub-propargylamide). Ub-PA covalently binds to the USP30 active site leading to a characteristic upshift on a SDS–PAGE gel ([22]). If a drug blocks access to the catalytic site, then the probe modification is blocked and the apparent molecular weight of USP30 shifts down accordingly. […] A robust proxy read-out for target engagement is the enhancement of TOMM20 ubiquitylation after mitochondrial depolarization ([6], [16]). This second assay indicates a maximal effect with 200 nM CMPD-39 applied to RPE1-YFP-PRKN cells (Fig 1D).  Figure 1. CMPD-39 is a selective USP30 inhibitor. (A) Chemical structure of CMPD-39. (B) DUB specificity screen (DUB profiler, Ubiquigent) with 1-100 μM CMPD-39. […] Samples were incubated with CMPD-39 for 2 h at the indicated concentrations, then incubated with HA-Ub-PA probe for 10 min at 37°C and immunoblotted as shown. Red arrow indicates unbound USP30; blue arrow represents probe bound USP30. (D) Inhibition of USP30 enhances the ubiquitylation of TOMM20 in YFP-PRKN over-expressing hTERT-RPE1 cells in a concentration dependent manner in response to mitophagy induction. Cells were treated for 1 h with DMSO or antimycin A and oligomycin A (AO; 1 μM each) in the absence or presence of CMPD-39 at the indicated concentrations, lysed, and analyzed by Western blotting. Black arrow indicates unmodified TOMM20, ubiquitylated species are indicated by red (mono-ubiquitylated) or blue arrow heads. […] Source data are available for this figure.

Experiment [2] deals with JOSD1 (Homo sapiens, UniProt Q15040). The method, then: as §1
In experiment [3] the target is T2, JOSD2 (Homo sapiens, UniProt Q8TAC2).
T2 sequence (Q8TAC2 1-188): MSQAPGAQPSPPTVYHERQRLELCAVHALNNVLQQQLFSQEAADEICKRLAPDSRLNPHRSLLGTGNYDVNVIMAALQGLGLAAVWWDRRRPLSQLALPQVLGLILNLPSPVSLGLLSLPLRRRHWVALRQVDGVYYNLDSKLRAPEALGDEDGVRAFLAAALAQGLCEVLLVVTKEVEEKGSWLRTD
The method, then:
as §1

Experiment [4] has as its target T3, OTUB2 (Homo sapiens, UniProt Q96DC9).
T3 sequence (Q96DC9 1-234): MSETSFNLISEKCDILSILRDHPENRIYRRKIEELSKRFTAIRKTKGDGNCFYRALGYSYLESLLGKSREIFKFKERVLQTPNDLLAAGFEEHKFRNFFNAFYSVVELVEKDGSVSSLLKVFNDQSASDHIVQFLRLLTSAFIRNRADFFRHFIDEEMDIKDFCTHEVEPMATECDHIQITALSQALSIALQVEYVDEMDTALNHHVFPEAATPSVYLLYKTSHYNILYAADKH
The method, then: as §1

In experiment [5] the target is T4, USP14 (+Proteasome-VS@Kd) (Homo sapiens, UniProt P54578).
T4 construct: +Proteasome-VS@Kd
Here is the method:
as §1

Experiment [6] addresses T5, USP15 (Homo sapiens, UniProt Q9Y4E8).
T5 sequence (Q9Y4E8 1-981): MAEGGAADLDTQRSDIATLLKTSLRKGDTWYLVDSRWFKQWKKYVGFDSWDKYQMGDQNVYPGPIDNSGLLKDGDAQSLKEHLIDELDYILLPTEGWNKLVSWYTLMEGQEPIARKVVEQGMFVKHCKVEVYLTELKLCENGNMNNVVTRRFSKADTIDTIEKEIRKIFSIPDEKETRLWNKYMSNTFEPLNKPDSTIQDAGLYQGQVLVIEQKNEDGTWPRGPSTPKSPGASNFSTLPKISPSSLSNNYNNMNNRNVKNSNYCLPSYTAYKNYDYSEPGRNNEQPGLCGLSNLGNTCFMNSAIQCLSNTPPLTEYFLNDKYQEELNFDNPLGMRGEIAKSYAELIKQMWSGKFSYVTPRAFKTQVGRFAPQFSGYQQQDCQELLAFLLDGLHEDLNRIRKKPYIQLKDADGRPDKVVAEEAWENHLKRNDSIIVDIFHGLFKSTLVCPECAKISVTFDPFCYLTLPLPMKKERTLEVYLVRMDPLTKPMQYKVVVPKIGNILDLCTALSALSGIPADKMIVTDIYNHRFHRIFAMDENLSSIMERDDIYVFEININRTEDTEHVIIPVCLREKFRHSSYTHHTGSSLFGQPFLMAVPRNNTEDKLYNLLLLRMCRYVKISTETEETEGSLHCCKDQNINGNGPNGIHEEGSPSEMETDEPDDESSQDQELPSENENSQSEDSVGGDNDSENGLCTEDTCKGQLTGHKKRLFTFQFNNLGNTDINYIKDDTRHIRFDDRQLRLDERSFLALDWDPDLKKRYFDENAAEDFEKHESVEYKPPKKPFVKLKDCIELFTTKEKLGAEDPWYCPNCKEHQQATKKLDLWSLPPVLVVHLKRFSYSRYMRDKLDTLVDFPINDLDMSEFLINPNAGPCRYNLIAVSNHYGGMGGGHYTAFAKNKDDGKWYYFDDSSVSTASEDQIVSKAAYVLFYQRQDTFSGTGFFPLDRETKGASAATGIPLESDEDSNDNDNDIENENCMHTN
Here is the method:
as §1

The values that follow come from PMC8645336, “Benchmarking a highly selective USP30 inhibitor for enhancement of mitophagy and pexophagy” (Life Science Alliance, 2021).

T1 sequence (P54252 whole entry): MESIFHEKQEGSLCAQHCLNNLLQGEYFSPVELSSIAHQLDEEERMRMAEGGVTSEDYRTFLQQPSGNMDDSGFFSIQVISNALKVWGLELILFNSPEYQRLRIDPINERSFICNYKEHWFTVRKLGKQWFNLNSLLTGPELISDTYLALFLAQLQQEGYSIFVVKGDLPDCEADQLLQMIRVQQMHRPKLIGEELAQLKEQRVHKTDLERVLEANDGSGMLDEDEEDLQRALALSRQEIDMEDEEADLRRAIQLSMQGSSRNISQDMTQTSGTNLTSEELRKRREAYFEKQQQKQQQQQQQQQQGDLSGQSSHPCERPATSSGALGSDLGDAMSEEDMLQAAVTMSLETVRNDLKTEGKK
T4 sequence (P54578 whole entry): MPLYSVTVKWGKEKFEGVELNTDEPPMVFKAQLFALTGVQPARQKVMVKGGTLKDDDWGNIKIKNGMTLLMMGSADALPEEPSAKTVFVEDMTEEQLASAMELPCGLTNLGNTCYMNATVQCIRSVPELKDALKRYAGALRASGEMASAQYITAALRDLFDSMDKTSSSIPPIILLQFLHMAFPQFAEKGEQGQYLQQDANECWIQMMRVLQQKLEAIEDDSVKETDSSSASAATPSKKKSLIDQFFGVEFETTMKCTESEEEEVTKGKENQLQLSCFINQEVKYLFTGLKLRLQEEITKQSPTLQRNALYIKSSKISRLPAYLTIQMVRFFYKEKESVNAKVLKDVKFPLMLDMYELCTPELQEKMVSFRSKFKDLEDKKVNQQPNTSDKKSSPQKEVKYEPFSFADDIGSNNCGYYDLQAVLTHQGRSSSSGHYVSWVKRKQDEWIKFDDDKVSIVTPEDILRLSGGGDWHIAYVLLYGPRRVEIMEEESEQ

As for `CC(C)(C)NS(=O)(=O)c1ccc(NC(=O)[C@H](Cc2ccccc2)NC(=O)c2ccc(F)cc2)cc1` [compound 39, CMPD-39], the remaining activity at 1 µM in experiment [1] was determined as 102%; in experiment [2] it was 98.1%; in experiment [3], 105%; in experiment [4] it was 103%; in experiment [5], 107%; in experiment [6], 103%. Further, the remaining activity at 10 µM stood at 102% in experiment [1]; 99.6% in experiment [2]; 90.8% in experiment [3]; 97.5% in experiment [4]; 100% in experiment [5]; 101% in experiment [6]. Besides, the remaining activity at 100 µM was found to be 101% in experiment [1]; 103% in experiment [2]; 94.3% in experiment [3]; 97.3% in experiment [4]; 96.1% in experiment [5]; 98.1% in experiment [6].
